{"source": "patent US20110217715A1", "about": "“GENE EXPRESSION IN DUCHENNE MUSCULAR DYSTROPHY” (CHILDREN'S HOSPITAL MEDICAL CENTER, priority 2008, published 2011)", "system": "mRNA expression in peripheral blood of individuals with DMD", "assay": "Whole-blood gene expression microarray: DMD administered prednisone or deflazacort vs DMD not administered steroid", "assay_type": "in vivo, human", "protocol": "Fifteen ml of blood was collected from each individual into 6 PAXgene® Vacutainer® tubes (PreAnalytiX, Germany) by antecubital fossa venipuncture. PAXgene® tubes contain a proprietary reagent that immediately stabilizes RNA, thus reducing RNA degradation and minimizing gene expression changes following phlebotomy. The tubes were then inverted 20 times, then remained undisturbed for 2 h at room temperature (about 19° C. to about 22° C.), and then stored at -70° C. until processed. Total RNA was isolated using the Paxgene® blood RNA kit (PreAnalytiX, Germany) according to the manufacturers instructions. The RNA isolated is from all cells in whole blood. […] Sample labeling, hybridization to chips, and image scanning were performed using standard Affymetrix protocols. For each whole blood sample from control individuals and individuals with DMD, total RNA was labeled using the One-Cycle Target Labeling protocol and hybridized to the arrays. […] Double-stranded cDNA synthesis, biotin-labeled cRNA synthesis, and cRNA fragmentation were performed according to the Affymetrix GeneChip Eukaryotic Expression Analysis protocol. […] After hybridization, the array was washed and stained. […] After scanning the array, the raw probe level values for each probe were saved in Affymetrix.cel files. […] Statistical analyses, including t-test analyses, unsupervised hierarchical clustering, and principal component analyses were conducted using Genespring 7.2 software ([…]® 7, Silicon Genetics, Redwood City Calif.). […] Corrections for multiple comparisons used a Benjamini-Hochberg False Discovery Rate (FDR) of 0.05, disclosed in Tang et al., J Cereb Blood Flow Metab 26 (2006) 1089, which is expressly incorporated by reference herein in its entirety. […] Individuals with DMD were evaluated and had been diagnosed by a single board-certified pediatric neurologist. The diagnosis of DMD was based in part upon clinical history, examination findings, and selected muscle biopsies and was confirmed by molecular diagnostic testing. […] Sample processing and array hybridization, probe-level data analysis, and statistical analysis were identical to Example 1.", "key": {"[1]": {"conditions": "DMD administered deflazacort or prednisone vs not administered"}}}
{"smiles": "CC(=O)OCC(=O)[C@@]12N=C(C)O[C@@H]1C[C@H]1[C@@H]3CCC4=CC(=O)C=C[C@]4(C)[C@H]3[C@@H](O)C[C@@]12C", "note": "[deflazacort]", "values": [{"measurement": "expression levels of FKBP5", "setting": "[1]", "value": "up-regulated"}, {"measurement": "expression levels of genes in the chondroitin sulfate biosynthesis pathway", "setting": "[1]", "value": "up-regulated"}, {"measurement": "expression levels of haptoglobin and CD163 nucleic acids", "setting": "[1]", "value": "up-regulated"}, {"measurement": "expression levels of lactotransferrin and lipocalin", "setting": "[1]", "value": "increased expression levels"}, {"measurement": "expression of KFL10", "setting": "individuals administered prednisone, deflazacort, or both vs DMD not administered any agent", "value": "up-regulated"}]}
